Test results reported in US12503707B2, “Methods, plants and compositions for overcoming nutrient suppression of mycorrhizal symbiosis” (Cambridge Enterprise Limited, priority 2020, dated 2025).

Experiments:
[1] = system: M. truncatula root epidermal cells; test: Nuclear calcium imaging after CO/LCO treatment; format: cell-based, Medicago truncatula; details: lateral roots; −N−P and +N+P conditions
Protocol: For calcium analyses M. truncatula seedlings were grown on Buffered Nodulation Media (BNM) agar with 100 nM Aminoethoxyvinylglycine (AVG; Sigma-Aldrich) until lateral roots emerged (FIGS. 1A-1B). […] The lateral roots were fixed in a small chamber made on a cover glass using vacuum grease, with 500 μl of BNM buffer. The roots were then treated with COs (CO4 or CO8), LCOs (non-sulfated LCO (NS-LCO) or a LCO derived from Sinorhizobium meliloti (SmLCO)), at the concentrations indicated in FIGS. 1A-1B. Recordings were collected on an inverted epifluorescence microscope (model TE2000; Nikon). Yellow cameleon YC3.6 was excited with an 458-nm laser and imaged using emission filters 476-486 nm for CFP and 529-540 nm for YFP. The calcium images were collected every 5 seconds with 1 second exposure and analyzed using Metafluor (Molecular Devices). Calcium traces used the intensity ratio of YFP to CFP. For better visualization of calcium signals, the traces were flattened to a single axis by subtracting the values with moving average as the following formula:
[formula] Where Sf is the flattened signal, So is the original signal, and MA is the moving average of the value. For each element i, MA is calculated as:
[formula] where m is the arbitrary number of points to calculate the average, w=[m/2] and xj is the signal at point j. M. truncatula Gene Expression

[2] = system: R. irregularis colonization of H. vulgare; test: Mycorrhizal colonization assay with R. irregularis; format: in vivo, Hordeum vulgare; details: 0.1 μM GR24 twice a week
Protocol: FIGS. 14A-14D provide the effects of treating H. vulgare plants with a strigolactone or with both a strigolactone and a CEP peptide. […] Plants were grown under high nitrate and high phosphate (5 mM NO3^− and 0.5 mM PO4^−) and cells were treated with 10^−7 M SmLCO. The top trace represents cells without any additional treatment, the middle trace represents cells that were pre-treated with 1 μM 5-deoxystrigol, and the bottom trace represents cells that were pre-treated with 1 μM 5-deoxystrigol and 1 μM CEP3. The scale bar indicates a span of 10 minutes, and the fractions indicate the number of cells that responded over the total number of cells analyzed. FIGS. 14B-14C provide the level of mycorrhizal colonization of H. vulgare when treated with the synthetic strigolactone analog GR24 under different nutrient conditions, as determined in two separate experiments. In FIG. 14B, colonization was measured 7 weeks post inoculation, and the x-axis indicates the nutrient conditions tested, and whether the plants were treated with GR24. […] In FIG. 14C, colonization was measured 6 weeks post inoculation, and the x-axis indicates the nutrient conditions tested, and whether the plants were treated with GR24. […] In FIGS. 14B-14C, the y-axis represents the percentage of roots colonized by mycorrhizal fungi, and the shading of each bar represents the fungal structure quantified. […]

[3] = system: M. truncatula LysM receptor-like kinase (LysM RLK) genes; test: LysM RLK gene expression by qRT-PCR after GR24 and/or TIS108 treatment; format: in vivo, Medicago truncatula; details: BNM plates 4 days
Protocol: FIGS. 24A-24E show the effects of nutrient starvation and strigolactone and/or karrikin treatment on M. truncatula RLK gene expression levels. […] As indicated from left to right above the heat map, M. truncatula was grown under limiting nitrate (−N, 0 mM NO3^− and 3.75 mM PO4^−), limiting phosphate (−P, 5 mM NO3^− and 0.0075 mM PO4^−), or limiting nitrate and phosphate (−N−P, 0 mM NO3^− and 0.0075 mM PO4^−). The relative expression level of each condition is normalized to expression when plants were grown under replete nitrate and replete phosphate (+N+P, 5 mM NO3^− and 3.75 mM PO4^−). As indicated from left to right below the heatmap, expression was measured either 5, 10, or 15 days after germination (“DAG”). The color scale indicates the relative expression levels, with black representing the lowest expression and light grey representing the highest expression. FIGS. 24B-24E show expression of M. truncatula genes after seedlings were grown on BNM plates for 4 days, and then treated with either DMSO (mock), 0.1 μM synthetic strigolactone analog GR24, 1 μM strigolactone-biosynthesis inhibitor TIS108, or both (0.1 μM GR24 and 1 μM TIS108) for 24 hours, as indicated on the x-axis. […] In each of FIGS. 24B-24E gene expression was determined by RT-qPCR, relative expression levels is on the y-axis, and the asterisks indicate the relative level of statistical significance as determined by a Student's t-test.
Gene expression was measured by qRT-PCR (FIGS. 2A-2B). Plants were grown on modified BNM plates (described above) with 100 nM AVG for four days, the plants were then carefully transferred to liquid BNM with the appropriate nutrient concentrations along with COs, PGN, flg22 and SmLCO, at a final concentration of 10^−7 M COs, 10^−7 M flg22, 0.4 mg/ml PGN and 10^−8 M SmLCO. After incubation for 6 h, plant roots were harvested and frozen in liquid nitrogen. […] An aliquot of each total RNA sample was used to determine RNA concentration and purity assessed on the NanoDrop ND-1000 spectral photometer (Peglab, Erlangen, Germany). RNA integrity was analyzed on the 2100 Bioanalyzer using RNA 6000 Nano LabChip Kits (Agilent Technologies). […] Gene expression was determined by an ABI 7500 using a SYBR green PCR master mix (Bio-Rad). […] Expression data were analyzed from the average of threshold cycle (CT) value, using an M. truncatula endogenous Histone 2A (H2A) gene as reference and fold induction calculated for treatment of elicitors relative to treatment with DMSO. […]
Gene expression was measured by RNA-seq. […] M. truncatula RLK gene expression levels were measured by qRT-PCR (FIGS. 24B-24E), as described in Example 1.

[4] = then 24 hours, 0.1 μM GR24, 1 μM TIS108

Structure (SMILES): CC(=O)N[C@H]1[C@H](O[C@H]2[C@H](O)[C@@H](NC(C)=O)C(O)O[C@@H]2CO)O[C@H](CO)[C@@H](O[C@@H]2O[C@H](CO)[C@@H](O[C@@H]3O[C@H](CO)[C@@H](O)[C@H](O)[C@H]3NC(C)=O)[C@H](O)[C@H]2NC(C)=O)[C@@H]1O (some centres unmarked) [CO4]
- nuclear symbiotic calcium oscillations (Cells spiking) [1]: promoted nuclear symbiotic oscillations

Structure (SMILES): CC1=C[C@H](O/C=C2/C(=O)O[C@@H]3c4ccccc4C[C@H]23)OC1=O [GR24]
- promotion of mycorrhizal colonization ([2]; 7 weeks post inoculation, no inhibitory effect of high phosphate seen): could not be observed
- mycorrhizal colonization ([2]; high phosphate (500 μM) and low nitrate (0.5 mM), 6 weeks post inoculation): promoted mycorrhizal colonization
- MtKUF1 expression compared to mock treatment [3, 4]: significantly increased
- MtLYK8 expression compared to mock treatment [3, 4]: significantly increased
- MtLYK10 expression compared to mock treatment [3, 4]: significantly increased

Structure (SMILES): CC(=O)N[C@H]1[C@H](O[C@H]2[C@H](O)[C@@H](NC(C)=O)[C@H](O[C@H]3[C@H](O)[C@@H](NC(C)=O)[C@H](O[C@H]4[C@H](O)[C@@H](NC(C)=O)C(O)O[C@@H]4CO)O[C@@H]3CO)O[C@@H]2CO)O[C@H](CO)[C@@H](O[C@@H]2O[C@H](CO)[C@@H](O[C@@H]3O[C@H](CO)[C@@H](O[C@@H]4O[C@H](CO)[C@@H](O[C@@H]5O[C@H](CO)[C@@H](O)[C@H](O)[C@H]5NC(C)=O)[C@H](O)[C@H]4NC(C)=O)[C@H](O)[C@H]3NC(C)=O)[C@H](O)[C@H]2NC(C)=O)[C@@H]1O (some centres unmarked) [CO8]
- nuclear symbiotic calcium oscillations (Cells spiking) [1]: promoted nuclear symbiotic oscillations

Structure (SMILES): O=C(c1ccccc1)C(CCCCOc1ccccc1)n1cncn1 (centres unmarked) [TIS108]
- LysM RLK gene expression compared to mock treatment ([3]; then 1 μM TIS108 for 24 hours): either the same or lower
